# Measurements as given in PMC9226319, “Peripherally restricted transthyretin-based delivery system for probes and therapeutics avoiding opioid-related side effects” (Nature Communications, 2022).
# Several values for one entry are separate records, joined by “and”; a condition that tells them apart may be missing. Equal values may be shown once. Read-outs that look alike come from different tables or passages of the source.
# Experiments:
# in vivo [1] = settings: male, Sprague Dawley, rat, iv, 4.84 umol/kg
# [2] = rat, single IV bolus 4.84 µmol/kg
# [3] = rat, single SC dose 16 µmol/kg
# in vivo [4] = settings: male, Sprague Dawley, rat, sc, 16 umol/kg
# male Sprague-Dawley rats [5] = settings: rat, in vivo
# male Sprague-Dawley rats [6] = test: Gastrointestinal (GI) transit (charcoal meal) assays; assay type: in vivo, rat; settings: rat, in vivo
# TTR in human serum = TTR in human serum (Homo sapiens, UniProt P02766); test: TTR serum fluorescent probe exclusion (FPE) selectivity assay; assay type: binding; settings: ligand 10 µM; for % TTR occupancy in human serum: FPE probe 3.6 µM, 3 h reading relative to probe alone, text mean ± s.d., table replicates; for %FPE probe fluorescence: human serum, replicates
compound,measurement,setting,value
"C=CCN1CC[C@]23c4c5ccc(O)c4O[C@H]2C(=O)CC[C@@]3(O)[C@H]1C5 [Naloxone, reference compound]",AUC(0-inf),in vivo [1],1.46 ± 0.257 µM·h
same,Vd,in vivo [1],1.23 ± 0.42 L/kg
same,clearance,in vivo [1],56.5 mL/min/kg
same,half-life,in vivo [1],52.2 ± 7.8 min
same,k,[2],0.81 ± 0.13 h⁻¹
same,k,[3],1.03 ± 0.1 h⁻¹
same,AUC(0-inf),in vivo [4],1.76 ± 0.237 µM·h
same,CL/F,in vivo [4],152 mL/min/kg
same,Vd/F,in vivo [4],8.94 ± 2.08 L/kg
same,half-life,in vivo [4],40.2 ± 4.2 min
"COc1ccc2c3c1O[C@H]1C(=O)CC[C@@]4(O)[C@@H](C2)N(C)CC[C@]314 [Oxycodone, reference compound]",k,[3],0.9 ± 0.12 h⁻¹
same,analgesia (hot plate),male Sprague-Dawley rats [5],did not result in significant analgesia or constipation
same,analgesic effect 1 hour after ICV dosing,male Sprague-Dawley rats [5],no analgesic effect
same,hot plate latency,male Sprague-Dawley rats [5]; sc,56.8 ± 3.8 s
same,GI transit (% of vehicle),male Sprague-Dawley rats [6],18.7 ± 3.0%
same,constipation (GI transit),male Sprague-Dawley rats [6],did not result in significant analgesia or constipation
same,GI transit (% of vehicle),male Sprague-Dawley rats [6]; sc,8.0 ± 2.7%
same,GI transit as % of vehicle group,male Sprague-Dawley rats [6]; sc,4.72% and 11.93% and 8.19% and 6.37% and 8.96%
same,AUC(0-inf),in vivo [4],4.85 ± 0.676 µM·h
same,CL/F,in vivo [4],55.3 mL/min/kg
same,half-life,in vivo [4],46.8 ± 5.4 min
"O=C(O)c1ccc2nc(-c3cc(Cl)cc(Cl)c3)oc2c1 [Tafamidis, reference compound]",% TTR occupancy in human serum,TTR in human serum,47.45% and 46.83% and 51.34% and 50.15%
same,% TTR occupancy in human serum,TTR in human serum; listed as tafamidis,48.9 ± 2.2%
same,%FPE probe fluorescence,TTR in human serum; time 0.000 h,0.000%
same,%FPE probe fluorescence,TTR in human serum; time 0.083 h,1.299% and -1.005% and 0.704% and 3.155%
same,%FPE probe fluorescence,TTR in human serum; time 0.250 h,4.449% and 1.397% and 6.031% and 9.730%
same,%FPE probe fluorescence,TTR in human serum; time 0.500 h,5.578% and 5.344% and 9.630% and 15.940%
same,%FPE probe fluorescence,TTR in human serum; time 1.000 h,17.103% and 15.634% and 16.546% and 22.347%
same,%FPE probe fluorescence,TTR in human serum; time 1.250 h,23.082% and 19.584% and 22.707% and 26.257%
same,%FPE probe fluorescence,TTR in human serum; time 1.500 h,27.125% and 23.274% and 25.961% and 28.688%
same,%FPE probe fluorescence,TTR in human serum; time 1.750 h,32.902% and 29.136% and 30.570% and 32.212%
same,%FPE probe fluorescence,TTR in human serum; time 2.000 h,35.080% and 33.047% and 36.500% and 37.379%
same,%FPE probe fluorescence,TTR in human serum; time 2.250 h,40.669% and 40.161% and 39.661% and 42.469%
same,%FPE probe fluorescence,TTR in human serum; time 2.500 h,46.027% and 42.493% and 42.354% and 44.462%
same,%FPE probe fluorescence,TTR in human serum; time 2.750 h,50.625% and 47.468% and 47.510% and 47.875%
same,%FPE probe fluorescence,TTR in human serum; time 3.000 h,53.169% and 48.662% and 49.846% and 52.554%
same,%FPE probe fluorescence,TTR in human serum; time 3.500 h,60.381% and 56.275% and 57.091% and 59.281%
same,%FPE probe fluorescence,TTR in human serum; time 3.750 h,61.493% and 61.080% and 58.641% and 60.288%
same,%FPE probe fluorescence,TTR in human serum; time 4.000 h,65.122% and 63.511% and 61.468% and 61.493%
same,%FPE probe fluorescence,TTR in human serum; time 4.250 h,66.463% and 64.406% and 63.696% and 64.254%
same,%FPE probe fluorescence,TTR in human serum; time 4.500 h,68.966% and 68.075% and 65.963% and 66.999%
same,%FPE probe fluorescence,TTR in human serum; time 4.750 h,72.160% and 67.655% and 67.312% and 67.678%
same,%FPE probe fluorescence,TTR in human serum; time 5.000 h,70.882% and 70.753% and 66.636% and 68.909%
same,%FPE probe fluorescence,TTR in human serum; time 5.250 h,72.950% and 73.018% and 69.707% and 71.230%
same,%FPE probe fluorescence,TTR in human serum; time 5.500 h,75.965% and 73.410% and 70.521% and 70.704%
same,%FPE probe fluorescence,TTR in human serum; time 5.750 h,76.955% and 73.721% and 71.869% and 74.221%
same,%FPE probe fluorescence,TTR in human serum; time 6.000 h,78.267% and 76.878% and 72.520% and 75.177%
